Measurements published in PMC4494927, “Discovery of a small molecule targeting SET-PP2A interaction to overcome BCR-ABLT315I mutation of chronic myeloid leukemia” (Oncotarget, 2015).

Columns and labels:
[1] = tested on: K562 cells; assay: Cytotoxicity assay (CellTiter-Glo); type: cell-based, human
Experimental: Twenty types of tumor cell lines were seeded at 4000 cells per well in 96-well plates. […] Cell viability was measured with the CellTiter-Glo Luminescent Cell Viability Assay (Promega) according to the manufacturer's instructions. Luminescence was measured using an EnVision Multilabel Plate Reader (Perkin-Elmer). The cytotoxicity of TGI1002 was expressed as the percentage of luminescence relative to that of untreated cells.

[2] = tested on: BaF3-p210^T315I cells; assay: Cytotoxicity assay (CellTiter-Glo); type: cell-based, murine; conditions: Mus musculus; TKI-resistant BaF3-p210^T315I cells, cell viability
Experimental: (§1) Twenty types of tumor cell lines were seeded at 4000 cells per well in 96-well plates. TGI1002 dissolved in phosphate saline was added to cells at final concentrations ranging from 0.5 nM to 100 μM for 120 h. Cell viability was measured with the CellTiter-Glo Luminescent Cell Viability Assay (Promega) according to the manufacturer's instructions. Luminescence was measured using an EnVision Multilabel Plate Reader (Perkin-Elmer). The cytotoxicity of TGI1002 was expressed as the percentage of luminescence relative to that of untreated cells.

[3] = tested on: HT-29 cells; assay: Cytotoxicity assay (CellTiter-Glo); type: cell-based, human; conditions: 120 h, panel of 20 tumor cell lines
Experimental: as §1

[4] = tested on: PC-3 cells; assay: Cytotoxicity assay (CellTiter-Glo); type: cell-based, human; conditions: 120 h, panel of 20 tumor cell lines
Experimental: as §1

[5] = tested on: PP2A; assay: PP2Ac immunoprecipitation phosphatase assay in K562 cells; type: cell-based, human; conditions: 10 μM, 24 h
Experimental: PP2A assay from whole cell lysates was carried out using commercial PP2Ac immunoprecipitation phosphatase assay kit (Millipore). Briefly, 200 μg protein lysates prepared as described above, 4 μg PP2Ac-specific antibody, and 40 μL protein A-agarose were added to TBS buffer (20 mM Tris-HCl, 150 mM NaCl, and 0.1% Tween 20) to a final volume of 500 μL and immunoprecipitation was carried out at 4 °C for 2 h. The immunoprecipitates were used in the phosphatase reaction following the manufacturer's protocol.

[6] = target: T1, SET-PP2A interaction (Homo sapiens, UniProt Q01105); assay: Co-immunoprecipitation of SET and PP2Ac in K562 cells; type: cell-based; conditions: 24 h
T1 construct: SET and PP2Ac protein complexes were immunoprecipitated; endogenous in cells; host or cells: K562
Experimental: Protein samples (40 μg) were resolved on SDS-PAGE gels, transferred onto PVDF membranes (Millipore) and incubated overnight with primary antibodies to β-tubulin, BCR-ABL, p-BCR-ABL, SET, PP2Ac and p-PP2Ac. The membranes were incubated with horseradish peroxidase (HRP)-conjugated secondary antibody for 1 h, and the bands were visualized using an ECL detection kit following the manufacturer's instructions. For immunoprecipitation, cells were lysed in 20 mM Tris-HCl (pH 7.0), 150 mM NaCl, 1 mM EDTA, 1 mM MgCl and 0.5% NP-40 supplemented with a cocktail of protease and phosphatase inhibitors (Roche). Lysates (200 μg) were incubated with primary antibodies (1 μg) against SET or PP2Ac at 4 °C for 10 h, protein A/G plus agarose beads were then added for immunoprecipitation overnight at 4 °C. After wash, the immunoprecipitated proteins were separated by SDS-PAGE and analyzed by Western blotting.

[7] = tested on: tubulin; assay: Microtubule assembly assay in K562 cells; type: cell-based, human; conditions: 24 h
Experimental: Separation of insoluble polymerized tubulin from soluble tubulin dimers and analysis of the effects of TGI1002 on tubulin polymerization were performed as described previously. In brief, K562 cells at a density of 1 × 10^6/100 mm^2 dishes were treated with indicated concentrations of TGI1002 at 24 h. Cells were washed with PBS for three times before adding polymerization lysate buffer containing 20 mM Tris-HCl (pH6.8), 1 mM MgCl2, 2 mM EGTA, […] aprotinin, […] leupeptin, 1 mM phenylmethylsulfonyl fluoride, 1 mM orthovanadate and 0.5% Nonidet. After centrifugation at 15,000 x g for 10 min at 4 °C, the pellets were resuspended in SDS-PAGE loading buffer and dissolved by heating at 95 °C for 10 min. Beta-tubulin was then Western blotted from both pellets (containing polymerized microtubules) and supernatants (containing depolymerized microtubules).

[8] = tested on: BaF3-p210^T315I tumor xenografts; assay: In vivo anti-tumor efficacy, subcutaneous xenograft; parameters: species or system BALB/c mice; conditions: for inhibition of tumor growth, in terms of tumor volume: day 20 post-injection of BaF3-p210^T315I cells
Experimental: BABL/c male mice from SLRC Experimental Animal Center were bred under pathogen-free conditions and were used for experiments at 6-8 weeks of age. Animal experiments were performed according to institutional and national guidelines. BaF3-p210^T315I cells were implanted subcutaneously into the right flank of nude mice (200 μL of a 1 × 10^7cells suspension in serum free medium). When tumors became large enough for caliper measurement, tumor volumes were calculated as (length × width^2) × 0.5. […] At the end of the experiments, tumors were dissected and photographed, and wet weights of each tumor were measured.

[9] = tested on: BaF3-p210^T315I cells; assay: Survival study, intravenously injected tumor cells; type: in vivo, BALB/c mice; conditions: 30 mg/kg i.p. once daily from day 5; vehicle 25.5 days
Experimental: In survival study, BaF3-p210^T315I cells were injected into the tail vein of BALB/c mice (100 μL of a 1 × 10^7 cells suspension in serum free medium). […] Moribund animals were sacrificed as per institutional and national guidelines. Survival data were analyzed by the Kaplan Meier method and compared using the log-rank test.

[10] = tested on: K562 cells expressing SET shRNA; assay: Cytotoxicity in K562 cells with stable SET knock-down (shRNA); type: cell-based, human; conditions: SET knock-down vs control K562 cells
Experimental: as §1
Lentivirus-encoded shRNA against human SET (GenBank No.: NM_003011) and a noncoding gene (negative control) were prepared by Genechem and titered to 2 × 10^8 (TU/mL). K562 cells (1 × 10^4 cells/well) were seeded in 96-well plates overnight before transfection. The virus (10 μL) was mixed with 90 μL complete medium containing polybrene (5 μg/mL) and added to cells and incubated for 12 h at 37 °C. Then, the cells were incubated in fresh complete RPMI 1640 medium for 72 h, followed by incubation in complete medium containing puromycin (5 μg/mL). After 2 weeks of selection, individual clones were isolated, passaged and harvested for subsequent studies. Identification of stable SET-knockdown K562 cell line was performed by Western blotting. Effects of TGI1002 on cell viability of SET-knockdown K562 cells were studied as described above.

T1 sequence (Q01105 whole entry): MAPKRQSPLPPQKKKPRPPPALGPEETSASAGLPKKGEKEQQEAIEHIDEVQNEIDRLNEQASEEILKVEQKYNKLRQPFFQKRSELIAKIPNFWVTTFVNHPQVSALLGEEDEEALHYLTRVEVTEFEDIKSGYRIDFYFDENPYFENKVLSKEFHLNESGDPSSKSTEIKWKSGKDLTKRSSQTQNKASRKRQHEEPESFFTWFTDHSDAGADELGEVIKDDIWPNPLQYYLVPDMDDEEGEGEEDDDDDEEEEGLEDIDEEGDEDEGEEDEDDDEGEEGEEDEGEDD

## Cc1ccc(NC(=O)c2cccc(CN3CCN(C)CC3)c2)cc1Oc1nccc(-c2cccnc2)n1.Cl [TGI1002, N-(4-methyl-3-((4-(pyridin-3-yl)-pyrimidin-2-yl)oxy)phenyl)-3-((4-methylpiperazin-1-yl)methyl)benzamide hydrochloride]
[1]; Homo sapiens, 72 h, cell viability
  IC50: 11 ± 1.98 µM
[1]; IC50 at 72 h
  fold less potent than imatinib: approximately 35 fold
[2]
  IC50: 14.7 ± 2.61 µM
[3]
  cytotoxicity: cytotoxic effects
[4]
  cytotoxicity: cytotoxic effects
[5]
  PP2A activity enhanced compared to untreated cells: 144.67 ± 5.51%
[6]
  association between SET and PP2A: trend of decrease
[7]
  amounts of tubulin in depolymerized fraction S and polymerized fraction P: not affected
[8]; 30 mg/kg i.p. daily
  inhibition of tumor growth, in terms of tumor volume: 51.07%
[8]; 45 mg/kg i.p. daily
  inhibition of tumor growth, in terms of tumor volume: 53.15%
[8]; 60 mg/kg i.p. daily
  inhibition of tumor growth, in terms of tumor volume: 68.01%
[8]; 30, 45 and 60 mg/kg i.p. daily, tumor-bearing mice
  body weight: without loss of body weight
[8]; TGI1002 30, 45, 60 mg/kg, imatinib, ponatinib 10 mg/kg, i.p. daily
  final tumor volume and weight compared to vehicle group: markedly lower
[9]
  median survival: 32.5 days
[10]
  sensitivity of K562 cells to treatment after SET-specific shRNA: decreased the sensitivity
